test system: HCT116 cells; experiment: In vitro cytotoxicity measured by the cell colony formation assay; type: cell-based; conditions: HCT116 cells, 72 h incubation with drug, colonies counted after 7 days; ID50 = drug concentration producing 50% inhibition of colony formation; read-out: IN VITRO ID 50 (nm) HCT116
Method in brief: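 Colony-forming survival was scored 7 days after a 72 h, 37 °C compound exposure followed by washout into fresh medium.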

Which IC50 does the source give for `COC(=O)O[C@H]1C(=O)[C@@]2(C)C([C@H](OC(=O)c3ccccc3)[C@]3(O)C[C@H](OC(=O)[C@H](O)[C@H](C=C(C)C)NC(=O)OC(C)(C)C)C(C)=C1C3(C)C)[C@]1(OC(C)=O)CO[C@@H]1C[C@@H]2O` (stereo partly drawn) [Compound 1999] here?
The IC50 was under 1 nM.

With `COC(=O)O[C@H]1C(=O)[C@@]2(C)C([C@H](OC(=O)c3ccccc3)[C@]3(O)C[C@H](OC(=O)[C@H](O)[C@@H](NC(=O)OC(C)(C)C)c4ccccn4)C(C)=C1C3(C)C)[C@]1(OC(C)=O)CO[C@@H]1C[C@@H]2O` (stereo partly drawn) [Compound 2002] as the compound, how does the IC50 read?
Its IC50 is under 1 nM.

With `COC(=O)O[C@H]1C(=O)[C@@]2(C)C([C@H](OC(=O)c3ccccc3)[C@]3(O)C[C@H](OC(=O)[C@H](O)[C@@H](NC(=O)OC(C)(C)C)c4cccnc4)C(C)=C1C3(C)C)[C@]1(OC(C)=O)CO[C@@H]1C[C@@H]2O` (stereo partly drawn) [Compound 2011] as the compound, how does the IC50 read?
Its IC50 is under 10 nM.

With `COC(=O)O[C@H]1C(=O)[C@@]2(C)C([C@H](OC(=O)c3ccccc3)[C@]3(O)C[C@H](OC(=O)[C@H](O)[C@@H](NC(=O)OC(C)(C)C)c4ccncc4)C(C)=C1C3(C)C)[C@]1(OC(C)=O)CO[C@@H]1C[C@@H]2O` (stereo partly drawn) [Compound 2020] as the compound, how does the IC50 read?
Its IC50 is under 1 nM.

`COC(=O)O[C@H]1C(=O)[C@@]2(C)C([C@H](OC(=O)c3ccccc3)[C@]3(O)C[C@H](OC(=O)[C@H](O)[C@@H](NC(=O)OC(C)(C)C)c4ccoc4)C(C)=C1C3(C)C)[C@]1(OC(C)=O)CO[C@@H]1C[C@@H]2O` (stereo partly drawn) [Compound 2032] was tested. Which IC50 did it give?
Its IC50 is under 1 nM.

With `COC(=O)O[C@H]1C(=O)[C@@]2(C)C([C@H](OC(=O)c3ccccc3)[C@]3(O)C[C@H](OC(=O)[C@H](O)[C@@H](NC(=O)OC(C)(C)C)c4cccs4)C(C)=C1C3(C)C)[C@]1(OC(C)=O)CO[C@@H]1C[C@@H]2O` (stereo partly drawn) [Compound 2044] as the compound, how does the IC50 read?
The IC50 was under 1 nM.

`COC(=O)O[C@H]1C(=O)[C@@]2(C)C([C@H](OC(=O)c3ccccc3)[C@]3(O)C[C@H](OC(=O)[C@H](O)[C@@H](NC(=O)OC(C)(C)C)c4ccsc4)C(C)=C1C3(C)C)[C@]1(OC(C)=O)CO[C@@H]1C[C@@H]2O` (stereo partly drawn) [Compound 2050] was tested. Which IC50 did it give?
Its IC50 is under 1 nM.

Which IC50 does the source give for `COC(=O)O[C@H]1C(=O)[C@@]2(C)C([C@H](OC(=O)c3ccccc3)[C@]3(O)C[C@H](OC(=O)[C@H](O)[C@@H](NC(=O)OC(C)(C)C)C(C)C)C(C)=C1C3(C)C)[C@]1(OC(C)=O)CO[C@@H]1C[C@@H]2O` (stereo partly drawn) [Compound 2060] here?
Its IC50 is under 10 nM.

Which IC50 does the source give for `COC(=O)O[C@H]1C(=O)[C@@]2(C)C([C@H](OC(=O)c3ccccc3)[C@]3(O)C[C@H](OC(=O)[C@H](O)[C@@H](NC(=O)OC(C)(C)C)C(C)C)C(C)=C1C3(C)C)[C@]1(OC(C)=O)CO[C@@H]1C[C@@H]2O` (stereo partly drawn) [Compound 2062] here?
The IC50 was under 10 nM.

With `COC(=O)O[C@H]1C(=O)[C@@]2(C)C([C@H](OC(=O)c3ccccc3)[C@]3(O)C[C@H](OC(=O)[C@H](O)[C@@H](NC(=O)OC(C)(C)C)C4CCC4)C(C)=C1C3(C)C)[C@]1(OC(C)=O)CO[C@@H]1C[C@@H]2O` (stereo partly drawn) [Compound 2077] as the compound, how does the IC50 read?
Its IC50 is under 10 nM.

For `COC(=O)O[C@H]1C(=O)[C@@]2(C)C([C@H](OC(=O)c3ccccc3)[C@]3(O)C[C@H](OC(=O)[C@H](O)[C@@H](NC(=O)OC(C)(C)C)c4ccc([N+](=O)[O-])cc4)C(C)=C1C3(C)C)[C@]1(OC(C)=O)CO[C@@H]1C[C@@H]2O` (stereo partly drawn) [Compound 2088], which IC50 is on record?
Its IC50 is under 1 nM.

same assay, conditions: HCT116 colony formation; 72 h drug incubation, colonies counted after 7 days; Example 10, C-10 ester/C-7 hydroxy taxanes; read-out: IN VITRO ID 50 (nm) HCT116

For `CC(=O)OC12COC1CC(O)C1(C)C(=O)C(OC(=O)c3cccs3)C3=C(C)C(OC(=O)C(O)C(NC(=O)OC(C)(C)C)c4ccncc4)CC(O)(C(OC(=O)c4ccccc4)C21)C3(C)C` (stereo not drawn) [Compound 1954], which IC50 is on record?
The IC50 was under 1 nM.

Which IC50 does the source give for `CC(=O)OC12COC1CC(O)C1(C)C(=O)C(OC(=O)c3cccs3)C3=C(C)C(OC(=O)C(O)C(NC(=O)OC(C)(C)C)C(C)C)CC(O)(C(OC(=O)c4ccccc4)C21)C3(C)C` (stereo not drawn) [Compound 1964] here?
The IC50 was under 10 nM.

Which IC50 does the source give for `CC(=O)OC12COC1CC(O)C1(C)C(=O)C(OC(=O)c3cccs3)C3=C(C)C(OC(=O)C(O)C(NC(=O)OC(C)(C)C)C4CCC4)CC(O)(C(OC(=O)c4ccccc4)C21)C3(C)C` (stereo not drawn) [Compound 1970] here?
Its IC50 is under 10 nM.

`CC(=O)OC12COC1CC(O)C1(C)C(=O)C(OC(=O)c3cccs3)C3=C(C)C(OC(=O)C(O)C(NC(=O)OC(C)(C)C)c4ccccc4)CC(O)(C(OC(=O)c4ccccc4)C21)C3(C)C` (stereo not drawn) [Compound 1988] was tested. Which IC50 did it give?
Its IC50 is under 10 nM.
